Laboratory results published in patent US20020162794A1, “Anaerobic digestion” (priority 2001, published 2002).
“And” between values parts separate entries of the source, which are not always exact repeats. Identical values can stand only once.

Test system: mixed culture from a publicly owned anaerobic digester (domestic sewage sludge)
Assay: Chemical Oxygen Demand (COD) of batch anaerobic digester reactors
Experimental: Two tests were run in which sodium formate in concentrations ranging from a few parts per million (ppm) up to ten percent (10%) on a mass basis were added to samples taken from a publicly owned anaerobic digester. The samples were first cultured in laboratory sized batch reactors. The twelve batch reactors were then sampled, and studied for periods of up to fifty-five days. The process variables that were monitored included COD (Chemical Oxygen Demand), TS (Total Solids), TVS (Total Volatile Solids) and the pH of the culture. Time and the initial sodium formate concentration level were the independent variables. Finally measurements were also made of the bacterial counts at the beginning and at the end of the fifty five day period. These experimental observations permitted partial identifications of the predominant bacterial colonies still viable in each of the twelve reactors used for each trial of the laboratory study.
Chemical Oxygen Demand (COD) measurements
To perform this measurement, a 5 ml of the sample from each of the 12 reactors is taken and diluted 10-fold to 50 ml. 5 ml of the now diluted sample is again diluted 10 fold to 50 ml. This double dilution represents a 100-fold dilution of the original sample. 2 ml of these diluted samples are put into standard COD test tubes. The test tubes are closed and shaken vigorously. The 13 (COD) test tubes (one is a control) are then heated to 150 deg. C for two hours. The UV spectrometer is calibrated by first analyzing the test tube with pure distilled water as the zero COD or control sample.
The sample test tubes are then analyzed for COD using UV spectrometer after inputting the method number and adjusting the frequency of UV rays to correspond to a sample with a high organic loading range. The readings that were obtained in units of mg/liter are multiplied by 100 to correct for the dilution procedure and to get COD concentration level for the original sample. COD is indicative of the organic substrate load level in the wastewater being treated or tested.
Municipal sludge from the city of Lubbock, Wastewater Treatment Plant was digested in 12 batch digesters. Using twelve batch reactors allowed the collection of control reactors data (i.e., no formate in the reactors) in triplicate, titration studies of increasing formate concentration, and duplicates/triplicates of varying formate concentration. Experiments were conducted in the laboratories of Texas Tech University.
The substrate taken was 2 parts of 50 g/liter sucrose solution mixed with 1 part of digested municipal sludge which acts as the seed material for incorporation of microbes into the reactors. The experiments were started with the following protocol. [drawing 1]

Structure (SMILES): O=C[O-].[Na+] [sodium formate]
- COD Concentration (1/4/99 run, 100 ppm, 0 Day): 29.5 g/L
- COD Concentration (1/4/99 run, 100 ppm, 15 days): 43.8 g/L
- COD Concentration (1/4/99 run, 100 ppm, 30 days): 39.1 g/L
- COD Concentration (1/4/99 run, 1250 ppm, 0 Day): 40.3 g/L
- COD Concentration (1/4/99 run, 1250 ppm, 15 days): 42.7 g/L
- COD Concentration (1/4/99 run, 1250 ppm, 30 days): 32 g/L
- COD Concentration (1/4/99 run, 2500 ppm, 0 Day): 17.1 g/L
- COD Concentration (1/4/99 run, 2500 ppm, 15 days): 41.4 g/L
- COD Concentration (1/4/99 run, 2500 ppm, 30 days): 38.9 g/L
- COD Concentration (1/4/99 run, 3750 ppm, 0 Day): 38 g/L
- COD Concentration (1/4/99 run, 3750 ppm, 15 days): 40.7 g/L
- COD Concentration (1/4/99 run, 3750 ppm, 30 days): 47.8 g/L
- COD Concentration (1/4/99 run, 5000 ppm, 0 Day): 37.5 g/L
- COD Concentration (1/4/99 run, 5000 ppm, 15 days): 43.1 g/L
- COD Concentration (1/4/99 run, 5000 ppm, 30 days): 46.6 g/L
- COD Concentration (1/4/99 run, 6250 ppm, 0 Day): 34.3 g/L
- COD Concentration (1/4/99 run, 6250 ppm, 15 days): 44.1 g/L
- COD Concentration (1/4/99 run, 6250 ppm, 30 days): 38.1 g/L
- COD Concentration (1/4/99 run, 7500 ppm, 0 Day): 36.7 g/L
- COD Concentration (1/4/99 run, 7500 ppm, 15 days): 33 g/L
- COD Concentration (1/4/99 run, 7500 ppm, 30 days): 55.8 g/L
- COD Concentration (1/4/99 run, 8750 ppm, 0 Day): 24.9 g/L
- COD Concentration (1/4/99 run, 8750 ppm, 15 days): 26.1 g/L
- COD Concentration (1/4/99 run, 8750 ppm, 30 days): 53.8 g/L
- COD Concentration (1/4/99 run, 10000 ppm, 0 Day): 33.8 g/L
- COD Concentration (1/4/99 run, 10000 ppm, 15 days): 36.1 g/L
- COD Concentration (1/4/99 run, 10000 ppm, 30 days): 45.5 g/L
- COD Concentration, Average (1/4/99 run, average 25 ppm (reactors 0, 0, 0, 100 ppm), 0 Day): 37.825 g/L
- COD Concentration, Average (1/4/99 run, average 25 ppm (reactors 0, 0, 0, 100 ppm), 15 days): 51.23 g/L
- COD Concentration, Average (1/4/99 run, average 25 ppm (reactors 0, 0, 0, 100 ppm), 30 days): 39.125 g/L
- COD Concentration, Average (1/4/99 run, average 2500 ppm (1250, 2500, 3750 ppm), 0 Day): 31.8 g/L
- COD Concentration, Average (1/4/99 run, average 2500 ppm (1250, 2500, 3750 ppm), 15 days): 41.6 g/L
- COD Concentration, Average (1/4/99 run, average 2500 ppm (1250, 2500, 3750 ppm), 30 days): 39.57 g/L
- COD Concentration, Average (1/4/99 run, average 6250 ppm (5000, 6250, 7500 ppm), 0 Day): 36.17 g/L
- COD Concentration, Average (1/4/99 run, average 6250 ppm (5000, 6250, 7500 ppm), 15 days): 40.07 g/L
- COD Concentration, Average (1/4/99 run, average 6250 ppm (5000, 6250, 7500 ppm), 30 days): 46.83 g/L
- COD Concentration, Average (1/4/99 run, average 8750 ppm (7500, 8750, 10000 ppm), 0 Day): 31.8 g/L
- COD Concentration, Average (1/4/99 run, average 8750 ppm (7500, 8750, 10000 ppm), 15 days): 31.73 g/L
- COD Concentration, Average (1/4/99 run, average 8750 ppm (7500, 8750, 10000 ppm), 30 days): 51.7 g/L
- COD Concentration (7/1/99 run (Tables 5, 6), 1000 ppm, 0 Day (with formate addition)): 52 g/L and 60.8 g/L and 48.6 g/L
- COD Concentration (7/1/99 run (Tables 5, 6), 1000 ppm, 7 Day): 65.8 g/L and 68.2 g/L and 50.3 g/L
- COD Concentration (7/1/99 run (Tables 5, 6), 1000 ppm, 1 days, listed as Format): 51.5 g/L and 60.3 g/L and 57.2 g/L
- COD Concentration (7/1/99 run (Tables 5, 6), 1000 ppm, 1 days, listed as Formate): 57.2 g/L
- COD Concentration (7/1/99 run (Tables 5, 6), 1000 ppm, 4 days): 52 g/L and 51.4 g/L and 52.3 g/L
- COD Concentration (7/1/99 run (Tables 5, 6), 1000 ppm, 9 days): 54.9 g/L and 48.5 g/L and 47.7 g/L
- COD Concentration (7/1/99 run (Tables 5, 6), 1000 ppm, 16 days): 33.1 g/L and 41.4 g/L and 33.6 g/L
- COD Concentration (7/1/99 run (Tables 5, 6), 1000 ppm, 55 days): 34 g/L and 46.6 g/L and 38 g/L
- COD Concentration (7/1/99 run (Tables 5, 6), 5000 ppm, 0 Day (with formate addition)): 60.3 g/L
- COD Concentration (7/1/99 run (Tables 5, 6), 5000 ppm, 7 Day): 52.2 g/L
- COD Concentration (7/1/99 run (Tables 5, 6), 5000 ppm, 1 days): 46.8 g/L and 48.8 g/L
- COD Concentration (7/1/99 run (Tables 5, 6), 5000 ppm, 4 days): 48.9 g/L
- COD Concentration (7/1/99 run (Tables 5, 6), 5000 ppm, 9 days): 44.2 g/L
- COD Concentration (7/1/99 run (Tables 5, 6), 5000 ppm, 16 days): 30.4 g/L
- COD Concentration (7/1/99 run (Tables 5, 6), 5000 ppm, 24 days): 30.9 g/L
- COD Concentration (7/1/99 run (Tables 5, 6), 5000 ppm, 55 days): 34.3 g/L
- COD Concentration (7/1/99 run (Tables 5, 6), 10000 ppm, 0 Day (with formate addition)): 58.2 g/L and 69 g/L and 36.7 g/L
- COD Concentration (7/1/99 run (Tables 5, 6), 10000 ppm, 7 Day): 56.4 g/L and 44.3 g/L
- COD Concentration (7/1/99 run (Tables 5, 6), 10000 ppm, 1 days, listed as Format): 50.7 g/L and 52.3 g/L and 45.5 g/L
- COD Concentration (7/1/99 run (Tables 5, 6), 10000 ppm, 1 days, listed as Formate): 45.5 g/L
- COD Concentration (7/1/99 run (Tables 5, 6), 10000 ppm, 4 days): 47.3 g/L and 43.5 g/L and 43.2 g/L
- COD Concentration (7/1/99 run (Tables 5, 6), 10000 ppm, 9 days): 49.9 g/L and 51.6 g/L and 43.7 g/L
- COD Concentration (7/1/99 run (Tables 5, 6), 10000 ppm, 16 days): 38.2 g/L and 32 g/L and 40 g/L
- COD Concentration (7/1/99 run (Tables 5, 6), 10000 ppm, 24 days): 40.8 g/L and 37.1 g/L and 40 g/L
- COD Concentration (7/1/99 run (Tables 5, 6), 10000 ppm, 55 days): 49.7 g/L and 38.5 g/L and 32 g/L
- COD Concentration (7/1/99 run (Tables 5, 6), 100000 ppm, 0 Day (with formate addition)): 49 g/L and 64.4 g/L
- COD Concentration (7/1/99 run (Tables 5, 6), 100000 ppm, 7 Day): 74.9 g/L and 94.5 g/L
- COD Concentration (7/1/99 run (Tables 5, 6), 100000 ppm, 1 days, listed as Format): 121 g/L and 165 g/L
- COD Concentration (7/1/99 run (Tables 5, 6), 100000 ppm, 1 days, listed as Formate): 120.7 g/L and 165 g/L
- COD Concentration (7/1/99 run (Tables 5, 6), 100000 ppm, 4 days): 65.5 g/L and 87.1 g/L
- COD Concentration (7/1/99 run (Tables 5, 6), 100000 ppm, 9 days): 71 g/L and 89.6 g/L
- COD Concentration (7/1/99 run (Tables 5, 6), 100000 ppm, 16 days): 57.5 g/L and 67.1 g/L
- COD Concentration (7/1/99 run (Tables 5, 6), 100000 ppm, 24 days): 41.5 g/L and 25.6 g/L
- COD Concentration (7/1/99 run (Tables 5, 6), 100000 ppm, 55 days): 64.8 g/L and 73.9 g/L
- % (reduction of average COD versus 0 ppm) (7/1/99 run, 1000 ppm): 0.72%
- COD Concentration, Average (7/1/99 run, 1000 ppm, average of 3 reactors, 0 Day): 53.8 g/L
- COD Concentration, Average (7/1/99 run, 1000 ppm, average of 3 reactors, 7 Day): 61.43 g/L
- COD Concentration, Average (7/1/99 run, 1000 ppm, average of 3 reactors, 1 days): 58.3 g/L and 56.3 g/L
- COD Concentration, Average (7/1/99 run, 1000 ppm, average of 3 reactors, 4 days): 51.9 g/L
- COD Concentration, Average (7/1/99 run, 1000 ppm, average of 3 reactors, 9 days): 50.37 g/L
- COD Concentration, Average (7/1/99 run, 1000 ppm, average of 3 reactors, 16 days): 36.03 g/L
- COD Concentration, Average (7/1/99 run, 1000 ppm, average of 3 reactors, 24 days): 36.6 g/L
- COD Concentration, Average (7/1/99 run, 1000 ppm, average of 3 reactors, 55 days): 38.87 g/L
- % (reduction of average COD versus 0 ppm) (7/1/99 run, 5000 ppm): 10.3%
- COD Concentration, average over all sampling days (Averag) (7/1/99 run, 5000 ppm, 0 to 55 days): 43.5 g/L
- % (reduction of average COD versus 0 ppm) (7/1/99 run, 10000 ppm): 5.79%
- COD Concentration, Average (7/1/99 run, 10000 ppm, average of 3 reactors, 0 Day): 54.63 g/L
- COD Concentration, Average (7/1/99 run, 10000 ppm, average of 3 reactors, 7 Day): 52.37 g/L
- COD Concentration, Average (7/1/99 run, 10000 ppm, average of 3 reactors, 1 days): 49.5 g/L
- COD Concentration, Average (7/1/99 run, 10000 ppm, average of 3 reactors, 4 days): 44.67 g/L
- COD Concentration, Average (7/1/99 run, 10000 ppm, average of 3 reactors, 9 days): 48.4 g/L
- COD Concentration, Average (7/1/99 run, 10000 ppm, average of 3 reactors, 16 days): 36.73 g/L
- COD Concentration, Average (7/1/99 run, 10000 ppm, average of 3 reactors, 24 days): 39.3 g/L
- COD Concentration, Average (7/1/99 run, 10000 ppm, average of 3 reactors, 55 days): 40.07 g/L
- % (reduction of average COD versus 0 ppm) (7/1/99 run, 100000 ppm): −56.1%
- COD Concentration, Average (7/1/99 run, 100000 ppm, average of 2 reactors, 0 Day): 56.7 g/L
- COD Concentration, Average (7/1/99 run, 100000 ppm, average of 2 reactors, 7 Day): 84.7 g/L
- COD Concentration, Average (7/1/99 run, 100000 ppm, average of 2 reactors, 1 days): 143 g/L
- COD Concentration, Average (7/1/99 run, 100000 ppm, average of 2 reactors, 4 days): 76.3 g/L
- COD Concentration, Average (7/1/99 run, 100000 ppm, average of 2 reactors, 9 days): 80.3 g/L
- COD Concentration, Average (7/1/99 run, 100000 ppm, average of 2 reactors, 16 days): 62.3 g/L
- COD Concentration, Average (7/1/99 run, 100000 ppm, average of 2 reactors, 24 days): 33.55 g/L
- COD Concentration, Average (7/1/99 run, 100000 ppm, average of 2 reactors, 55 days): 69.35 g/L
- COD reduction due to the formate (FIG. 2) (25 to 8,750 ppm, 0, 15 and 30 days): ~10%
- average percent range in improvement of measured COD levels (domestic sewage): ≤ 12%
- increase in COD reduction (FIG. 3) (from 0 formate up to about 5,000-7,000 ppm): about 10%
